Where a name gives a salt, the structure may show the parent alone.
Key:
[1] = cited from earlier work
[2] = Stability testing: physical form (disproportionation) monitored by X-ray powder diffraction after storage in vials; type: physicochemical; conditions: physical form found by XRPD after storage in vials
Protocol: The binary mixtures and pharmaceutical compositions were stored in vials at 40°C/75%RH for 1 month or at 50° C 75% RH for 14 days. Disproportionation effect was monitored by X-ray powder diffraction pattern.
X-ray powder diffraction patterns were obtained by a PANalytical PW3040/60 X'Pert PRO diffractometer using CuKα radiation of 1,541874.
(§1) Lenalidomide hydrochloride and the all the excipients with respect to the composition were weighed into the glass vial. Gelatine capsule were added into the vials. The vials were then closed with the stopper and gently mixed to form a homogenous mixture. The vials were subjected to the stress conditions.
as §1, with “hydrochloride in the form of monohydrate form VII” for “hydrochloride”, “vials. Vials” for “vials. The vials”
The capsules were stored in vials at 40°C/75%RH for 1 month. Physical stability of the samples was monitored by X-ray powder diffraction pattern. As evident from the results, the physical form remains the same, a disproportionation effect was not observed.

| SMILES | dissociation constant pKa1 ([1]; primary amine group) | pKa2 ([1]; secondary amine group) | Stability testing 1 month at 40°C/75%RH [2] |
| --- | --- | --- | --- |
| Nc1cccc2c1CN(C1CCC(=O)NC1=O)C2=O (stereo not drawn) [lenalidomide, (3-(4' aminoisoindoline-1'-one)-1-piperidine-2,6-dione)] | 2.31 | 11.6 | – |
| Nc1cccc2c1CN(C1CCC(=O)NC1=O)C2=O (stereo not drawn) [API, Lenalidomid HCl·H2O] | – | – | HCl salt |

Reference: patent EP3731817B1, “PHARMACEUTICAL COMPOSITION OF LENALIDOMIDE PHARMACEUTICALLY ACCEPTABLE ACID ADDITION SALT” (KRKA, d.d., Novo mesto, priority 2017, dated 2019)
